Measurements as given in PubChem BioAssay AID248 (DTP/NCI, 2004).
“And” between values parts separate entries of the source, which are not always exact repeats. Equal values may be shown once. Inconclusive results and toxic doses are left out.

Test system: L1210 leukemia ip in BDF1 mice, survival T/C
Assay: NCI In Vivo Anticancer Drug Screen. Data for tumor model L1210 Leukemia (intraperitoneal) in B6D2F1 (BDF1) mice
Conditions: endpoint: mean survival time, higher = longer survival
Procedure, shortened: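 Transplanted-tumor mice were given test agent; controls received vehicle only. Survival readings from the two groups were divided (treated over control).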

[1] = dose: 100.0 mg/kg/injection, schedule: Q01DX009 (ip), vehicle: saline
[2] = dose: 100.0 mg/kg/injection, schedule: Q04DX003 (ip), vehicle: saline with Tween-80
[3] = dose: 200.0 mg/kg/injection, schedule: Q01DX009 (ip), vehicle: saline
[4] = dose: 200.0 mg/kg/injection, schedule: Q04DX003 (ip), vehicle: saline with Tween-80
[5] = dose: 400.0 mg/kg/injection, schedule: Q01DX009 (ip), vehicle: saline
[6] = dose: 400.0 mg/kg/injection, schedule: Q04DX003 (ip), vehicle: saline with Tween-80
[7] = dose: 100.0 mg/kg/injection, schedule: Q01DX001 (ip), vehicle: saline
[8] = dose: 200.0 mg/kg/injection, schedule: Q01DX001 (ip), vehicle: saline
[9] = dose: 400.0 mg/kg/injection, schedule: Q01DX001 (ip), vehicle: saline
[10] = dose: 100.0 mg/kg/injection, schedule: Q04DX003 (ip), vehicle: saline
[11] = dose: 200.0 mg/kg/injection, schedule: Q04DX003 (ip), vehicle: saline
[12] = dose: 400.0 mg/kg/injection, schedule: Q04DX003 (ip), vehicle: saline
[13] = dose: 100.0 mg/kg/injection, schedule: Q01DX001 (ip), vehicle: carboxymethylcellulose (CMC)
[14] = dose: 200.0 mg/kg/injection, schedule: Q01DX001 (ip), vehicle: carboxymethylcellulose (CMC)
[15] = dose: 25.0 mg/kg/injection, schedule: Q04DX003 (ip), vehicle: Klucel (hydroxypropylcellulose) (HPC)
[16] = dose: 50.0 mg/kg/injection, schedule: Q04DX003 (ip), vehicle: Klucel (hydroxypropylcellulose) (HPC)
[17] = dose: 100.0 mg/kg/injection, schedule: Q04DX003 (ip), vehicle: Klucel (hydroxypropylcellulose) (HPC)
[18] = dose: 200.0 mg/kg/injection, schedule: Q04DX003 (ip), vehicle: Klucel (hydroxypropylcellulose) (HPC)
[19] = dose: 400.0 mg/kg/injection, schedule: Q04DX003 (ip), vehicle: Klucel (hydroxypropylcellulose) (HPC)
[20] = dose: 100.0 mg/kg/injection, schedule: Q01DX009 (ip), vehicle: Klucel (hydroxypropylcellulose) (HPC)
[21] = dose: 200.0 mg/kg/injection, schedule: Q01DX009 (ip), vehicle: Klucel (hydroxypropylcellulose) (HPC)
[22] = dose: 400.0 mg/kg/injection, schedule: Q01DX009 (ip), vehicle: Klucel (hydroxypropylcellulose) (HPC)
[23] = dose: 400.0 mg/kg/injection, schedule: Q01DX001 (ip), vehicle: carboxymethylcellulose (CMC)

CC(C)(O)CNCCCN
T/C (dose: 75.0 mg/kg/injection, schedule: Q01DX001 (ip), vehicle: saline): 96 % of control
T/C (dose: 150.0 mg/kg/injection, schedule: Q01DX001 (ip), vehicle: saline): 94 % of control
T/C (dose: 300.0 mg/kg/injection, schedule: Q01DX001 (ip), vehicle: saline): 102 % of control

O=C(Nc1ccccc1NC(=O)C(Cl)(Cl)Cl)C(Cl)(Cl)Cl
T/C (dose: 87.5 mg/kg/injection, schedule: Q01DX009 (ip), vehicle: carboxymethylcellulose (CMC)): 88 % of control
T/C (dose: 175.0 mg/kg/injection, schedule: Q01DX009 (ip), vehicle: carboxymethylcellulose (CMC)): 93 % of control
T/C (dose: 350.0 mg/kg/injection, schedule: Q01DX009 (ip), vehicle: carboxymethylcellulose (CMC)): 96 % of control

CNC(=O)N(C)Cc1ccccc1
T/C [1]: 107 % of control
T/C [2]: 104 % of control
T/C [3]: 115 % of control
T/C [4]: 93 % of control
T/C [5]: 117 % of control
T/C [6]: 104 % of control

Nc1ccc2oc3cccc(N)c3c(=O)c2c1
T/C [7]: 94 % of control
T/C [8]: 96 % of control
T/C [9]: 96 % of control

O=S(=O)(c1ccccc1)C1C2C=CC(O2)C1S(=O)(=O)c1ccccc1 (stereo unspecified)
T/C (dose: 100.0 mg/kg/injection, schedule: Q04DX002 (ip), vehicle: Klucel (hydroxypropylcellulose) (HPC)): 91 % of control
T/C (dose: 200.0 mg/kg/injection, schedule: Q04DX002 (ip), vehicle: Klucel (hydroxypropylcellulose) (HPC)): 93 % of control
T/C (dose: 400.0 mg/kg/injection, schedule: Q04DX002 (ip), vehicle: Klucel (hydroxypropylcellulose) (HPC)): 93 % of control

CSc1nc(C)c(Br)c(Nc2ccc(C(N)=O)cc2)n1
T/C (dose: 87.5 mg/kg/injection, schedule: Q01DX009 (ip), vehicle: Klucel (hydroxypropylcellulose) (HPC)): 94 % of control
T/C (dose: 175.0 mg/kg/injection, schedule: Q01DX009 (ip), vehicle: Klucel (hydroxypropylcellulose) (HPC)): 91 % of control
T/C (dose: 350.0 mg/kg/injection, schedule: Q01DX009 (ip), vehicle: Klucel (hydroxypropylcellulose) (HPC)): 101 % of control

CCOC(=O)c1cnc(SC)nc1Nc1c(Cl)cccc1Cl
T/C [2]: 96 % of control
T/C [4]: 94 % of control
T/C [6]: 94 % of control

CC(C)CC[n+]1cccc(C(N)=O)c1
T/C [10]: 100 % of control
T/C [11]: 110 % of control
T/C [12]: 113 % of control

O=C1CC2CCC(C1)N2CC1COc2ccccc2O1 (stereo unspecified)
T/C [7]: 100 % of control
T/C [8]: 120 % of control

CC(C)COC(=O)c1cccc2c1-c1ccccc1C2=O
T/C (dose: 100.0 mg/kg/injection, schedule: Q01DX001 (ip), vehicle: other): 96 % of control
T/C (dose: 200.0 mg/kg/injection, schedule: Q01DX001 (ip), vehicle: other): 87 % of control
T/C (dose: 400.0 mg/kg/injection, schedule: Q01DX001 (ip), vehicle: other): 98 % of control

CCCCN(C(=O)O)P(=O)(OCC)OCC
T/C (dose: 50.0 mg/kg/injection, schedule: Q01DX009 (ip), vehicle: saline): 101 % of control
T/C [1]: 103 % of control
T/C [3]: 109 % of control
T/C [5]: 97 % of control

CSC(C#N)S(C)(=O)=O (stereo unspecified)
T/C (dose: 25.0 mg/kg/injection, schedule: Q01DX001 (ip), vehicle: Klucel (hydroxypropylcellulose) (HPC)): 109 % of control
T/C (dose: 50.0 mg/kg/injection, schedule: Q01DX001 (ip), vehicle: Klucel (hydroxypropylcellulose) (HPC)): 100 % of control
T/C (dose: 100.0 mg/kg/injection, schedule: Q01DX001 (ip), vehicle: Klucel (hydroxypropylcellulose) (HPC)): 103 % of control and 108 % of control

COc1ccc(-c2ccns2)cc1
T/C [13]: 93 % of control
T/C [14]: 92 % of control

N#CCCC(C#N)(c1cccnc1)N1CCOCC1 (stereo unspecified)
T/C (dose: 6.25 mg/kg/injection, schedule: Q04DX002 (ip), vehicle: saline with Tween-80): 98 % of control
T/C (dose: 12.5 mg/kg/injection, schedule: Q04DX002 (ip), vehicle: saline with Tween-80): 98 % of control
T/C (dose: 25.0 mg/kg/injection, schedule: Q04DX002 (ip), vehicle: saline with Tween-80): 98 % of control

CC(C)(CO)N=Cc1ccccc1O
T/C [15]: 96 % of control
T/C [16]: 104 % of control
T/C [17]: 96 % of control

O=[N+]([O-])c1c(Cl)cc(Cl)c([N+](=O)[O-])c1Cl
T/C [17]: 94 % of control
T/C [18]: 90 % of control
T/C [19]: 94 % of control

CCOc1ccc(/C=C\C(=O)O)cc1
T/C [20]: 97 % of control
T/C [21]: 102 % of control
T/C [22]: 107 % of control

CN=C(NCCCOC)c1ccc(NC(=O)c2ccc(C(=O)Nc3ccc(C(=NC)NCCCOC)cc3)cc2)cc1
T/C (dose: 4.4 mg/kg/injection, schedule: Q01DX Z (ip), vehicle: carboxymethylcellulose (CMC)): 124 % of control
T/C (dose: 4.4 mg/kg/injection, schedule: Q01DX Z (ip), vehicle: saline): 108 % of control
T/C (dose: 6.6 mg/kg/injection, schedule: Q01DX Z (ip), vehicle: saline): 108 % of control
T/C (dose: 10.0 mg/kg/injection, schedule: Q01DX Z (ip), vehicle: carboxymethylcellulose (CMC)): 156 % of control
T/C (dose: 15.0 mg/kg/injection, schedule: Q01DX Z (ip), vehicle: carboxymethylcellulose (CMC)): 179 % of control
T/C (dose: 15.0 mg/kg/injection, schedule: Q01DX Z (ip), vehicle: saline): 155 % of control and 172 % of control
T/C (dose: 30.0 mg/kg/injection, schedule: Q01DX Z (oral), vehicle: saline): 101 % of control
T/C (dose: 60.0 mg/kg/injection, schedule: Q01DX Z (oral), vehicle: saline): 91 % of control
T/C (dose: 120.0 mg/kg/injection, schedule: Q01DX Z (oral), vehicle: saline): 93 % of control
T/C (dose: 240.0 mg/kg/injection, schedule: Q01DX Z (oral), vehicle: saline): 87 % of control
T/C (dose: 480.0 mg/kg/injection, schedule: Q01DX Z (oral), vehicle: saline): 91 % of control

NC(=O)/C=C\c1csc2ccccc12
T/C [13]: 100 % of control
T/C [14]: 94 % of control
T/C [23]: 94 % of control

COc1cc(C)cccc1=O
T/C (dose: 50.0 mg/kg/injection, schedule: Q01DX001 (ip), vehicle: carboxymethylcellulose (CMC)): 107 % of control
T/C [13]: 107 % of control
T/C [14]: 96 % of control
T/C [23]: 98 % of control

CCOC(=O)c1cnc2c(cnn2C(C)C)c1NN
T/C [17]: 99 % of control
T/C [18]: 99 % of control
T/C [19]: 96 % of control

Cc1nc2n[nH]c(N)c2nc1C
T/C [10]: 98 % of control
T/C [11]: 91 % of control
T/C [12]: 88 % of control

CC1NC(=S)N(c2ccc(S(=O)(=O)c3ccc(N4C(=O)C(C)NC4=S)cc3)cc2)C1=O (stereo unspecified)
T/C [7]: 102 % of control
T/C [8]: 98 % of control
T/C [9]: 98 % of control

COc1cc(N=CN(C)C)cc(OC)c1OC
T/C [20]: 101 % of control
T/C [17]: 97 % of control
T/C [21]: 103 % of control
T/C [18]: 97 % of control
T/C [22]: 103 % of control
T/C [19]: 93 % of control

CCC(CC)CC1CN2CCc3cc(OC)c(OC)cc3C2CC1(O)CC (stereo unspecified)
T/C (dose: 3.12 mg/kg/injection, schedule: Q01DX009 (ip), vehicle: Klucel (hydroxypropylcellulose) (HPC)): 93 % of control
T/C (dose: 6.25 mg/kg/injection, schedule: Q01DX009 (ip), vehicle: Klucel (hydroxypropylcellulose) (HPC)): 97 % of control
T/C (dose: 12.5 mg/kg/injection, schedule: Q01DX009 (ip), vehicle: Klucel (hydroxypropylcellulose) (HPC)): 109 % of control
T/C (dose: 25.0 mg/kg/injection, schedule: Q01DX009 (ip), vehicle: Klucel (hydroxypropylcellulose) (HPC)): 119 % of control
T/C [15]: 115 % of control
T/C (dose: 50.0 mg/kg/injection, schedule: Q01DX009 (ip), vehicle: Klucel (hydroxypropylcellulose) (HPC)): 97 % of control
T/C [16]: 99 % of control

O=C(OCC1CCN2CCCC12)c1ccccc1 (stereo unspecified)
T/C (dose: 12.5 mg/kg/injection, schedule: Q04DX003 (ip), vehicle: saline): 104 % of control
T/C (dose: 25.0 mg/kg/injection, schedule: Q04DX003 (ip), vehicle: saline): 110 % of control
T/C (dose: 50.0 mg/kg/injection, schedule: Q04DX003 (ip), vehicle: saline): 102 % of control
